# US8471005B2 (Cephalon, Inc., priority 2008, dated 2013)
# Where two headings read alike, the source gives them in different places.
# Experiments:
# ALK = biological target: T1, ALK (Homo sapiens, UniProt Q9UM73); assay: ALK Kinase Assay (ELISA/TRF, PLC-γ substrate); format: biochemical; details: read-out: ALK Potency
# T1 construct: host or cells: baculovirus expression system
# Method in brief: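 IC50 values derive from percent inhibition plotted against log10 compound concentration and fitted to a variable-slope sigmoidal equation. The underlying reaction used 30 ng/ml ALK acting on immobilized PLC-γ (10 μg/mL in TBS) at 37° C for 15 minutes, read with Eu-N1 PT66 antibody.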
# JAK2 = biological target: T2, JAK2 (Homo sapiens, UniProt O60674); assay: Recombinant Human JAK2 Kinase Assay (TRF); format: biochemical; details: read-out: JAK2 Potency
# T2 construct: host or cells: baculovirus expression system
# T2 sequence (O60674 whole entry): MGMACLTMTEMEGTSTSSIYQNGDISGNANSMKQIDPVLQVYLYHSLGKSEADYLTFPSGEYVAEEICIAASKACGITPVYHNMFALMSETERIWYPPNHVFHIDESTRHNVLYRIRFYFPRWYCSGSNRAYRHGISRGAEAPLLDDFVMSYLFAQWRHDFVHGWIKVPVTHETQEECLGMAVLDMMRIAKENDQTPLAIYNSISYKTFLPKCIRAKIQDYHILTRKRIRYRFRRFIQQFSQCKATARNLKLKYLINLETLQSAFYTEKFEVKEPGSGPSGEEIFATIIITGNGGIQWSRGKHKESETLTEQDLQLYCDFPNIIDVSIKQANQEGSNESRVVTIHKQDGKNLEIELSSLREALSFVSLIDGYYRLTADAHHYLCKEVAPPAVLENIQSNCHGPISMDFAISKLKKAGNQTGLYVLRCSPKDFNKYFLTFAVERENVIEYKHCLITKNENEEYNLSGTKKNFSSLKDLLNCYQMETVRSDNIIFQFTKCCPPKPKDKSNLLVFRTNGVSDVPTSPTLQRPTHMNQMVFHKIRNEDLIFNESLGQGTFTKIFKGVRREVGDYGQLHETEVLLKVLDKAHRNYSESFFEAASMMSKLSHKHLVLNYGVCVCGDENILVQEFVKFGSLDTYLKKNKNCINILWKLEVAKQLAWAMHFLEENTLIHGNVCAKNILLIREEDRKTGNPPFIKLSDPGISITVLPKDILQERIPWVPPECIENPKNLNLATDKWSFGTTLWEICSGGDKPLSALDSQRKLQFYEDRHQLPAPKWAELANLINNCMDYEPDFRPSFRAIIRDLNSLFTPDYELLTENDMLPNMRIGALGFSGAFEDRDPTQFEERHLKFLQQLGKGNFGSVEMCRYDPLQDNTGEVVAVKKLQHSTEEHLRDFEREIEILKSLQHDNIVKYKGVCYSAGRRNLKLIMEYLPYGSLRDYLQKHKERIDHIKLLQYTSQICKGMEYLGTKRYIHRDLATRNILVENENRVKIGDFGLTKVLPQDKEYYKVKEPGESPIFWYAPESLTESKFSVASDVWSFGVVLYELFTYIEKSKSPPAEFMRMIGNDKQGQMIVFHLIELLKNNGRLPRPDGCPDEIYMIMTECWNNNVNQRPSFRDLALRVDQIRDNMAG
# Method in brief: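 Baculovirus-expressed JAK2 (15 ng/ml) phosphorylated a biotinylated 15-mer peptide captured on Neutravidin-coated plates, in 20 mM HEPES pH 7.2 with 0.2 μM ATP, 1 mM MnCl2, 0.1% BSA and 2.5% DMSO. Reaction ran 20 min at room temperature; phosphopeptide was detected by time-resolved fluorescence with Eu-N1-labelled PY100 antibody.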
# [1] = ALK kinase inhibition, 1 μM ATP
# [2] = JAK2 kinase inhibition, 0.2 μM ATP
# T1 sequence (Q9UM73 19-1620): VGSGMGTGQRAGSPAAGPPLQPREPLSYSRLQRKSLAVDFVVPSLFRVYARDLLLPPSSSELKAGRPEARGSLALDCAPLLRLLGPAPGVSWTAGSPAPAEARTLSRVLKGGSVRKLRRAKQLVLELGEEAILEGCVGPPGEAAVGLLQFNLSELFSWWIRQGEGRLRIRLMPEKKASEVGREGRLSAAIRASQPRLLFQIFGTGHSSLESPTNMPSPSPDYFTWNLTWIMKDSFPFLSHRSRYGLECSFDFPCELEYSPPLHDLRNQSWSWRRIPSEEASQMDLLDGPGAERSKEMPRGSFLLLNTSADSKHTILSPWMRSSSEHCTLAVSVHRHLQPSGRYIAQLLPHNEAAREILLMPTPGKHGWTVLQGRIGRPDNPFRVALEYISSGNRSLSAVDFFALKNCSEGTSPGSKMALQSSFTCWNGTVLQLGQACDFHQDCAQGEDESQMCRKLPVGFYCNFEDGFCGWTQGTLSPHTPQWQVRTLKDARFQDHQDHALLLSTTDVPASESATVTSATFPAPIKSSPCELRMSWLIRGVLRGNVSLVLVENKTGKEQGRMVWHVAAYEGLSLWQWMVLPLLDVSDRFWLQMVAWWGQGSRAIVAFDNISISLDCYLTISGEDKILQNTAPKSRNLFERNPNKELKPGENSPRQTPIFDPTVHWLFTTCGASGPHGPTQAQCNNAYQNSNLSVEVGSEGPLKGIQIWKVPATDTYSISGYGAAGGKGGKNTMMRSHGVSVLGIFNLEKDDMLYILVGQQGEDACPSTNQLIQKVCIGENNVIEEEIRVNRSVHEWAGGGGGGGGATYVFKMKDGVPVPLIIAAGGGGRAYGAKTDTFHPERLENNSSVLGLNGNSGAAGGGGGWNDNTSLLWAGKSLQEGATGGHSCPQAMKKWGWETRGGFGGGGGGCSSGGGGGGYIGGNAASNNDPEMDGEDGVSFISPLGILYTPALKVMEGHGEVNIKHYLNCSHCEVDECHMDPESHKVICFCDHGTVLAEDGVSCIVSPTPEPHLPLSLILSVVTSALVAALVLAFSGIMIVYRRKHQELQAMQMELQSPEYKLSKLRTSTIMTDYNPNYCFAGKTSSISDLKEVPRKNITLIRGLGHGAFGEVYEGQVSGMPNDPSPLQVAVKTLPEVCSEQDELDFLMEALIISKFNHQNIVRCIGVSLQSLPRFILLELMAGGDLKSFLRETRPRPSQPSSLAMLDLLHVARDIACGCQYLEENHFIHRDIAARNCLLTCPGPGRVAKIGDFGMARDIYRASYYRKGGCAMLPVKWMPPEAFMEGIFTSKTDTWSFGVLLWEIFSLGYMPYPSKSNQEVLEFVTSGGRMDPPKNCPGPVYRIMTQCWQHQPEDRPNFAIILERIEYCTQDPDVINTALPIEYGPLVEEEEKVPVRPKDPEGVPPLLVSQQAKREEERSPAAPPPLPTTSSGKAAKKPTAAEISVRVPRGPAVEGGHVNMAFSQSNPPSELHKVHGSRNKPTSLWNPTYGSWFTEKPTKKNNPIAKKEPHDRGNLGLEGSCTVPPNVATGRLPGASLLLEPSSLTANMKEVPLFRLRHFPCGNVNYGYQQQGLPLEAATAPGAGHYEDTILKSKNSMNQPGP
Compound,IC50 (ALK; [1]),IC50 (JAK2; [2]),IC50 (ALK; ALK Kinase Inhibition),IC50 (JAK2; JAK2 Kinase Inhibition)
"COc1cc(C2CCN(CCO)CC2)ccc1Nc1ncc2ccc(-c3ccccc3N(C)S(C)(=O)=O)n2n1 [Example 793, N-[2-(2-{4-[1-(2-Hydroxy-ethyl)-piperidin-4-yl]-2-methoxy-henylamino}-pyrrolo[2,1-f][1,2,4]triazin-7-yl)-phenyl]-N-methyl-methanesulfonamide]",< 100 nM,100 to 1000 nM,–,–
"Cc1cc(Nc2ncc3ccc(-c4cccc(S(=O)(=O)NC(C)(C)C)c4)n3n2)ccc1C1CCN(CC(N)=O)CC1 [Example 938, 2-(4-{4-[7-(3-tert-Butylsulfamoyl-phenyl)-pyrrolo[2,1-f][1,2,4]triazin-2-ylamino]-2-methyl-phenyl}-piperidin-1-yl)-acetamide]",< 100 nM,< 100 nM,–,–
"COc1ccc(Cl)cc1-c1ccc2cnc(Nc3cccc(C(=O)N4CCOCC4)c3)nn12 [Example 328, {3-[7-(5-Chloro-2-methoxy-phenyl)-pyrrolo[2,1-f][1,2,4]triazin-2-ylamino]-phenyl}-morpholin-4-yl-methanone]",–,–,100 to 1000 nM,< 100 nM
"COc1ccccc1-c1ccc2cnc(Nc3cccc(C(=O)N4CCN(C)CC4)c3)nn12 [Example 338, {3-[7-(2-Methoxy-phenyl)-pyrrolo[2,1-f][1,2,4]triazin-2-ylamino]-phenyl}-(4-methyl-piperazin-1-yl)-methanone]",–,–,100 to 1000 nM,< 100 nM
"COc1cc2c(cc1Nc1ncc3ccc(-c4cccc5c4OCC5)n3n1)CCCC(N1CCN(CCO)CC1)C2 (stereo not drawn) [Example 707, 2-(4-{2-[7-(2,3-Dihydro-benzofuran-7-yl)-pyrrolo[2,1-f][1,2,4]triazin-2-ylamino]-3-methoxy-6,7,8,9-tetrahydro-5H-benzocyclohepten-6-yl}-piperazin-1-yl)-ethanol]",< 100 nM,100 to 1000 nM,–,–
"COc1ccc(Cl)cc1-c1ccc2cnc(Nc3ccc(C(=O)N4CCOCC4)cc3)nn12 [Example 315, {4-[7-(5-Chloro-2-methoxy-phenyl)-pyrrolo[2,1-f][1,2,4]triazin-2-ylamino]-phenyl}-morpholin-4-yl-methanone]",–,–,100 to 1000 nM,< 100 nM
"CC(C)C(=O)Nc1cccc(Nc2ncc3ccc(-c4cnn(C)c4)n3n2)c1 [Example 963, N-{3-[7-(1-Methyl-1H-pyrazol-4-yl)-pyrrolo[2,1-f][1,2,4]triazin-2-ylamino]-phenyl}-isobutyramide]",1000 to 10000 nM,< 100 nM,–,–
"Clc1cccc(-c2ccc3cnc(Nc4ccc(N5CCOCC5)nc4)nn23)c1 [Example 79, [7-(3-Chloro-phenyl)-pyrrolo[2,1-f][1,2,4]triazin-2-yl]-(6-morpholin-4-yl-pyridin-3-yl)-amine]",–,–,> 10000 nM,< 100 nM
"Clc1cccc(-c2ccc3cnc(Nc4ccc5[nH]ccc5c4)nn23)c1 [Example 176, [7-(3-Chloro-phenyl)-pyrrolo[2,1-f][1,2,4]triazin-2-yl]-(1H-indol-5-yl)-amine]",–,–,> 10000 nM,< 100 nM
"O=C(O)c1ccc(-c2ccc3cnc(Nc4ccc(N5CCOCC5)cc4)nn23)cc1 [Example 45, 4-[2-(4-Morpholin-4-yl-phenylamino)-pyrrolo[2,1-f][1,2,4]triazin-7-yl]-benzoic acid]",–,–,> 10000 nM,< 100 nM
"COc1cc(C(=O)N2CCN(C)CC2)ccc1Nc1ncc2ccc(-c3ccccc3OC)n2n1 [Example 489, {3-Methoxy-4-[7-(2-methoxy-phenyl)-pyrrolo[2,1-f][1,2,4]triazin-2-ylamino]-phenyl}-(4-methyl-piperazin-1-yl)-methanone]",100 to 1000 nM,100 to 1000 nM,–,–
"CC(=O)Nc1cccc(Nc2ncc3ccc(-c4cccc(C(=O)NC(C)(C)C)c4)n3n2)c1 [Example 886, 3-[2-(3-Acetylamino-phenylamino)-pyrrolo[2,1-f][1,2,4]triazin-7-yl]-N-tert-butyl-benzamide]",1000 to 10000 nM,< 100 nM,–,–
"c1cc(-c2ccc3cnc(Nc4ccc(N5CCOCC5)cc4)nn23)ccn1 [Example 4, (4-Morpholin-4-yl-phenyl)-(7-pyridin-4-yl-pyrrolo[2,1-f][1,2,4]triazin-2-yl)-amine]",–,–,1000 to 10000 nM,< 100 nM
"COc1ccc(Nc2ncc3ccc(-c4cc(Cl)ccc4OC)n3n2)cc1 [Example 153, [7-(5-Chloro-2-methoxy-phenyl)-pyrrolo[2,1-f][1,2,4]triazin-2-yl]-(4-methoxy-phenyl)-amine]",–,–,> 10000 nM,< 100 nM
"CCNS(=O)(=O)c1cccc(-c2ccc3cnc(Nc4ccc(C5CCN(CC(N)=O)CC5)cc4)nn23)c1 [Example 929, 2-(4-{4-[7-(3-Ethylsulfamoyl-phenyl)-pyrrolo[2,1f][1,2,4]triazin-2-ylamino]-phenyl}-piperidin-1-yl)-acetamide]",< 100 nM,< 100 nM,–,–
"N-{2-[2-(3,3-Dimethyl-2-oxo-2,3-dihydro-1H-indol-6-ylmethyl)-pyrrolo[2,1-f][1,2,4]triazin-7-yl]-phenyl}-N-methyl-methanesulfonamide [Example 661]",100 to 1000 nM,< 100 nM,–,–
"COc1cc(N2CCN(C[C@@H](C)O)CC2)ccc1Nc1ncc2ccc(-c3cc(Cl)ccc3OC)n2n1 [Example 756, (R)-1-(4-{4-[7-(5-Chloro-2-methoxy-phenyl)-pyrrolo[2,1-f][1,2,4]triazin-2-ylamino]-3-methoxy-phenyl}-piperazin-1-yl)-propan-2-ol]",< 100 nM,< 100 nM,–,–
"CCS(=O)(=O)Nc1cccc(-c2ccc3cnc(Nc4ccc(N5CCOCC5)cc4)nn23)c1 [Example 416, Ethanesulfonic acid {3-[2-(4-morpholin-4-yl-phenylamino)-pyrrolo[2,1-f][1,2,4]triazin-7-yl]-phenyl}-amide]",–,–,100 to 1000 nM,< 100 nM
"c1ccc(-c2ccc3cnc(Nc4ccc(N5CCOCC5)nc4)nn23)cc1 [Example 46, (6-Morpholin-4-yl-pyridin-3-yl)-(7-phenyl-pyrrolo[2,1-f][1,2,4]triazin-2-yl)-amine]",–,–,1000 to 10000 nM,< 100 nM

# The next lines start with the values.
IC50 (ALK; [1]),IC50 (JAK2; [2]),IC50 (ALK; ALK Kinase Inhibition),IC50 (JAK2; JAK2 Kinase Inhibition),Compound
< 100 nM,< 100 nM,–,–,"CN1CCC(c2ccc(Nc3ncc4ccc(-c5ccccc5N(C)S(C)(=O)=O)n4n3)cc2)CC1 [Example 1178, N-Methyl-N-(2-{2-[4-(1-methyl-piperidin-4-yl)-phenylamino]-pyrrolo[2,1-f][1,2,4]triazin-7-yl}-phenyl)-methanesulfonamide]"
–,–,100 to 1000 nM,< 100 nM,"COc1ccc(-c2ccc3cnc(Nc4ccc(C5CNCCN5)cc4)nn23)cn1 (stereo not drawn) [Example 1529, [7-(6-Methoxy-pyridin-3-yl)-pyrrolo[2,1-f][1,2,4]triazin-2-yl]-(4-piperazin-2-yl-phenyl)-amine]"
1000 to 10000 nM,< 100 nM,–,–,"COc1ccccc1-c1ccc2cnc(Nc3cccc(C4C(=O)N(C)CCN4C)c3)nn12 (stereo not drawn) [Example 1082, 3-{3-[7-(2-Methoxy-phenyl)-pyrrolo[2,1-f][1,2,4]triazin-2-ylamino]-phenyl}-1,4-dimethyl-piperazin-2-one]"
< 100 nM,100 to 1000 nM,–,–,"COC[C@H](O)CN1CCN(Cc2ccc(Nc3ncc4ccc(-c5ccccc5OC)n4n3)c(OC)c2)CC1 [Example 1227, (R)-1-Methoxy-3-(4-{3-methoxy-4-[7-(2-methoxy-phenyl)-pyrrolo[2,1-f][1,2,4]triazin-2-ylamino]-benzyl}-piperazin-1-yl)-propan-2-ol]"
–,–,100 to 1000 nM,< 100 nM,COc1cncc(-c2ccc3cnc(Nc4ccc5c(c4)CCN(CC(=O)N(C)C)CC5)nn23)c1 [Example 1575]
100 to 1000 nM,< 100 nM,–,–,"COc1ccccc1-c1ccc2cnc(Nc3ccn(CC(=O)N4CCOCC4)n3)nn12 [Example 1111, 2-{3-[7-(2-Methoxy-phenyl)-pyrrolo[2,1-f][1,2,4]triazin-2-ylamino]-pyrazol-1-yl}-1-morpholin-4-yl-ethanone]"
< 100 nM,1000 to 10000 nM,–,–,"COc1cc(C2CCN(CC(N)=O)CC2)ccc1Nc1ncc2ccc(-c3cn(C)nc3N(C)S(C)(=O)=O)n2n1 [Example 1256, 2-[4-(4-{7-[3-(Methanesulfonyl-methyl-amino)-1-methyl-1H-pyrazol-4-yl]-pyrrolo[2,1-f][1,2,4]triazin-2-ylamino}-3-methoxy-phenyl)-piperidin-1-yl]-acetamide]"
1000 to 10000 nM,< 100 nM,–,–,"CNC(=O)c1cccc(Nc2ncc3ccc(-c4cnn(C)c4)n3n2)c1 [Example 965, N-Methyl-3-[7-(1-methyl-1H-pyrazol-4-yl)-pyrrolo[2,1-f][1,2,4]triazin-2-ylamino]-benzamide]"
100 to 1000 nM,< 100 nM,–,–,"Cn1cc(-c2ccc3cnc(Nc4ccc(N5CCC(N6CCOCC6)CC5)cc4)nn23)cn1 [Example 1187, [7-(1-Methyl-1H-pyrazol-4-yl)-pyrrolo[2,1-f][1,2,4]triazin-2-yl]-[4-(4-morpholin-4-yl-piperidin-1-yl)-phenyl]-amine]"
100 to 1000 nM,< 100 nM,–,–,"CN(c1ccccc1-c1ccc2cnc(Nc3ccc4c(cnn4CCN4CCOCC4)c3)nn12)S(C)(=O)=O [Example 1333, N-Methyl-N-(2-{2-[1-(2-morpholin-4-yl-ethyl)-1H-indazol-5-ylamino]-pyrrolo[2,1-f][1,2,4]triazin-7-yl}-phenyl)-methanesulfonamide]"
> 10000 nM,1000 to 10000 nM,–,–,"CN(c1ccccc1-c1ccc2cnc(OCCN3CCN(c4ccc(N)cc4)CC3)nn12)S(C)(=O)=O [Example 1172, N-[2-(2-{2-[4-(4-Amino-phenyl)-piperazin-1-yl]-ethoxy}-pyrrolo[2,1-f][1,2,4]triazin-7-yl)-phenyl]-N-methyl-methanesulfonamide]"
